Source: patent US9890166B2, “Imidazopyrrolidine derivatives and their use in the treatment of disease” (NOVARTIS AG, priority 2013, dated 2018)

Key:
K-562 cells = assay: Cell growth inhibition assay (CellTiter-Glo), K-562; settings: for GI50: Homo sapiens, K562, read-out: K-562 GI50; for K-562 TGI: K-562 cells, total growth inhibition, CellTiter-Glo;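 as to all read-outs here: cellular ATP measured by luminescence after 4 days of exposure, 3-fold dilution series from 10 µM, DMSO vehicle-treated cells define 100%, cell-free medium wells −100%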
THP-1 cells = assay: Cell growth inhibition assay (CellTiter-Glo), THP-1; settings: for GI50: Homo sapiens, THP-1, read-out: THP-1 GI50; for THP-1 TGI: THP-1 cells, total growth inhibition, CellTiter-Glo;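 as to all read-outs here: viability read as cellular ATP luminescence after 4 days, 3-fold dilution series from 10 µM, DMSO vehicle-treated cells taken as 100%, cell-free medium wells as −100%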
MV-4-11 cells = assay: Cell growth inhibition assay (CellTiter-Glo), MV-4-11; settings: for GI50: Homo sapiens, MV4-11, read-out: MV-4-11 GI50; for MV-4-11 TGI: MV-4-11 cells, total growth inhibition, CellTiter-Glo;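 as to all read-outs here: cellular ATP luminescence after 4 days, 3-fold dilution series from 10 µM top dose, vehicle (0.1% DMSO) set to 100%, cell-free medium set to −100%, day 0 corrected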
[1] = molecular target: CREBBP bromodomain (His-CREBBP(1081-1197)) (Homo sapiens (Human), UniProt Q92793); assay: AlphaScreen in-vitro binding assay for CREBBP; settings: single determination or n ≧ 2 independent determinations, read-out: Biochemical IC50 CREBBP
Description: AlphaScreen In-Vitro Binding Assay for CREBBP
In order to assess bromodomain selectivity, we set up a binding assay using the bromodomain encoded by the CREBBP gene. […] Reactions were incubated at 30° C. for 35 minutes. Subsequently 4.5 μl per well detection mix (50 mM HEPES, pH 7.5, 0.005% Tween20, 0.02% BSA, 150 mM NaCl, 45 μg/ml Ni-chelate acceptor beads, 45 μg/mIstreptavidin-donor beads) (Perkin Elmer)) were added. After 60 minutes incubation at room temperature, plates were measured in a Perkin Elmer EnVision multilabel reader. IC50 values were determined from percent inhibition values at different compound concentrations by non-linear regression analysis.
(§1) Preparation of Compound Dilutions
(§2) Test compounds were dissolved in DMSO (10 mM) and transferred into 1.4 mL flat bottom or V-shaped Matrix tubes carrying a unique 2D matrix. The stock solutions were stored at […] if not used immediately. For the test procedure the vials were defrosted and identified by a scanner whereby a working sheet was generated that guided the subsequent working steps.
(§3) Compound dilutions were made in 96 well plates. This format enabled the assay of maximally 40 individual test compounds at 8 concentrations (single points) including 4 reference compounds, if desired (known BET inhibitors from the prior art, for this and other assays of the type disclosed herein). The dilution protocol included the production of “pre-dilution plates”, “master plates” and “assay plates”.
(§4) Pre-Dilution Plates: 96 polypropylene well plates were used as pre-dilution plates. A total of 4 pre-dilution plates were prepared including 10 test compounds each on the plate positions A1-A10, one standard compound at A11 and one DMSO control at A12. All dilution steps were done on a HamiltonSTAR robot.
(§5) These plates were used directly for the assay which was performed in a total volume of 13.55 μL.

BRD4 (His-Brd4(44-477)) = BRD4 (His-Brd4(44-477)) (Homo sapiens (Human), UniProt O60885); assay: TR-FRET in-vitro binding assay for BRD4; settings: single determination or n ≧ 2 independent determinations, read-out: Biochemical IC50 BRD4
Description: (§6) TR-FRET In-Vitro Binding Assays for BRD2, BRD3, and BRD4:
(§7) All assays were performed in 384 well microtiter plates. Each assay plate contained 8-point serial dilutions for 40 test compounds, plus 16 high- and 16 low controls. Liquid handling and incubation steps were done on an Innovadyne Nanodrop Express equipped with a robotic arm (Thermo CatX, Perkin Elmer/Caliper Twister II) and an incubator (Liconic STX40, Thermo Cytomat 2C450). The assay plates were prepared by addition of 50 nl per well of compound solution in 90% DMSO HummingBird nanodispenser (Zinsser Analytic). […] Reactions were incubated at 30° C. for 35 minutes. […] After 35 minutes incubation at 30° C., plates were measured in a Perkin Elmer EnVision multilabel reader.
as §1, §2, §3, §4, §5

BRD3 (His-Brd3(20-477)) = BRD3 (His-Brd3(20-477)) (Homo sapiens (Human), UniProt Q15059); assay: TR-FRET in-vitro binding assay for BRD3; settings: single determination or n ≧ 2 independent determinations, read-out: Biochemical IC50 BRD3
Description: as §6, §7, §1, §2, §3, §4, §5

BRD3 (His-Brd3(20-477)), sequence (Q15059 20-477): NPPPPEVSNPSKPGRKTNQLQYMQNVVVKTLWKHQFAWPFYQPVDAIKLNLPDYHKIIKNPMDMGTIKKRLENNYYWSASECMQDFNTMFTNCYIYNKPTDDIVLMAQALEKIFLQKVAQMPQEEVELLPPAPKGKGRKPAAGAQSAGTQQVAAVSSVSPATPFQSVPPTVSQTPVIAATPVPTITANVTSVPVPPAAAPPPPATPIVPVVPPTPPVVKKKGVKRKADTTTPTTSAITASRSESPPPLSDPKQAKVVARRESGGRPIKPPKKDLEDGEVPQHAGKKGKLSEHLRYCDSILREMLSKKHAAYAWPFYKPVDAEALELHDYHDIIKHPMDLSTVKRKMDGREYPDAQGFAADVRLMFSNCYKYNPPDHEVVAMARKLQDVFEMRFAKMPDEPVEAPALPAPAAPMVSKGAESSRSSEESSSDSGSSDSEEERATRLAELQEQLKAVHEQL
CREBBP bromodomain (His-CREBBP(1081-1197)), sequence (Q92793 1081-1197): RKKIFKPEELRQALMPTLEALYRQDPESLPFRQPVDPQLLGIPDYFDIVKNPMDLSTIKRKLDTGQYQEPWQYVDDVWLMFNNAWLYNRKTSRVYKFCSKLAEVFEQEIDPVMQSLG

| SMILES | GI50 (K-562 cells) [nM] | K-562 TGI (K-562 cells) [nM] | GI50 (THP-1 cells) [nM] | THP-1 TGI (THP-1 cells) [nM] | GI50 (MV-4-11 cells) [nM] | MV-4-11 TGI (MV-4-11 cells) [nM] | IC50 [1] [nM] | IC50 (BRD4 (His-Brd4(44-477))) [nM] | IC50 (BRD3 (His-Brd3(20-477))) [nM] |
| --- | --- | --- | --- | --- | --- | --- | --- | --- | --- |
| Cc1nc2c([nH]1)C(c1ccc(Cl)cc1)N(c1cc(C)c3nnn(C)c3c1)C2=O (centres unmarked) [Example 1, 6-(4-chlorophenyl)-5-(3,7-dimethyl-3H-benzo[d][1,2,3]triazol-5-yl)-2-methyl-5,6-dihydropyrrolo[3,4-d]imidazol-4(1H)-one] | 160 | >10000 | 38.4 | 79.9 | 26.3 | 52.35 | – | – | – |
| Cc1cc(N2C(=O)c3nc(C4=CCOCC4)n(C4COC4)c3C2c2ccc(Cl)cc2)cc2c1nnn2C (centres unmarked) [Example 93, 6-(4-chlorophenyl)-2-(3,6-dihydro-2H-pyran-4-yl)-5-(1,4-dimethyl-1H-benzo[d][1,2,3]triazol-6-yl)-1-(oxetan-3-yl)-5,6-dihydropyrrolo[3,4-d]imidazol-4(1H)-one] | 104 | >10000 | 21.2 | 69.35 | 15.9 | 32 | 2700 | 21.5 | 34 |
| Cc1cc(N2C(=O)c3nc(C)n(C4COC4)c3C2c2ccc(Cl)cc2)cc2c1nnn2C (centres unmarked) [Example 94, 6-(4-chlorophenyl)-5-(1,4-dimethyl-1H-benzo[d][1,2,3]triazol-6-yl)-2-methyl-1-(oxetan-3-yl)-5,6-dihydropyrrolo[3,4-d]imidazol-4(1H)-one] | 270 | >10000 | 47.4 | 94.35 | 40.6 | 68.7 | 8050 | 71.5 | 46 |
| Cc1cc(N2C(=O)c3nc(C4CC4)n(C4COC4)c3C2c2ccc(Cl)cc2)cc2c1nnn2C (centres unmarked) [Example 95, 6(4-chlorophenyl)-2-cyclopropyl-5-(1,4-dimethyl-1H-benzo[d][1,2,3]triazol-6-yl)-1-(oxetan-3-yl)-5,6-dihydropyrrolo[3,4-d]imidazol-4(1H)-one] | 85.7 | >10000 | 17 | 52.4 | 28 | 42 | 1950 | 26.5 | 29 |
| Cc1cc(N2C(=O)c3nc(C4=CCN(C)CC4)n(C4COC4)c3C2c2ccc(Cl)cc2)cc2c1nnn2C (centres unmarked) [Example 96, 6-(4-chlorophenyl)-5-(1,4-dimethyl-1H-benzo[d][1,2,3]triazol-6-yl)-2-(1-methyl-1,2,3,6-tetrahydropyridin-4-yl)-1-(oxetan-3-yl)-5,6-dihydropyrrolo[3,4-d]imidazol-4(1H)-one] | 351 | >10000 | 202 | 273.6 | 79.3 | 120.6 | 3950 | 39 | 33.5 |
| Cc1cc(N2C(=O)c3nc(C4CCOC4)n(C(C)C)c3C2c2ccc(Cl)cc2)cc2c1nnn2C (centres unmarked) [Example 99, 6-(4-chlorophenyl)-5-(1,4-dimethyl-1H-benzo[d][1,2,3]triazol-6-yl)-1-isopropyl-2-(tetrahydrofuran-3-yl)-5,6-dihydropyrrolo[3,4-d]imidazol-4(1H)-one] | – | – | – | – | – | – | 960 | 16 | 18 |
| Cc1cc(N2C(=O)c3nc(C4CCOCC4)n(C4COC4)c3C2c2ccc(Cl)cc2)cc2c1nnn2C (centres unmarked) [Example 105, 6-(4-chlorophenyl)-5-(1,4-dimethyl-1H-benzo[d][1,2,3]triazol-6-yl)-1-(oxetan-3-yl)-2-(tetrahydro-2H-pyran-4-yl)-5,6-dihydropyrrolo[3,4-d]imidazol-4(1H)-one] | 90.2 | >10000 | 12.3 | 27.85 | 10.8 | 21.95 | 2000 | 13 | 17 |
| Cc1cc(N2C(=O)c3nc(C4=CCOCC4)[nH]c3C2c2ccc(Cl)cc2)cn2c(C)nnc12 (centres unmarked) [Example 116, 6-(4-chlorophenyl)-2-(3,6-dihydro-2H-pyran-4-yl)-5-(3,8-dimethyl-[1,2,4]triazolo[4,3-a]pyridin-6-yl)-5,6-dihydropyrrolo[3,4-d]imidazol-4(1H)-one] | 330 | >10000 | 91.1 | 166 | 71.5 | 117.5 | 2250 | 41 | 58 |
| COc1ccc(-c2nc3c([nH]2)C(c2ccc(Cl)cc2)N(c2cc(C)c4nnc(C)n4c2)C3=O)cn1 (centres unmarked) [Example 117, 6-(4-chlorophenyl)-5-(3,8-dimethyl-[1,2,4]triazolo[4,3-a]pyridin-6-yl)-2-(6-methoxypyridin-3-yl)-5,6-dihydropyrrolo[3,4-d]imidazol-4(1H)-one] | 207 | >10000 | 81 | 129 | 69.5 | 112 | – | – | – |
| COc1cc(C(F)(F)F)ccc1-c1nc2c([nH]1)C(c1ccc(Cl)cc1)N(c1cc(C)c3nnc(C)n3c1)C2=O (centres unmarked) [Example 136, 6-(4-chlorophenyl)-5-(3,8-dimethyl-[1,2,4]triazolo[4,3-a]pyridin-6-yl)-2-(2-methoxy-4-(trifluoromethyl)phenyl)-5,6-dihydropyrrolo[3,4-d]imidazol-4(1H)-one] | 227 | >10000 | 79.4 | 179.5 | 76.6 | 114 | 2600 | 30 | 32 |
| COc1cc(F)ccc1-c1nc2c([nH]1)C(c1ccc(Cl)cc1)N(c1cc(C)c3nnc(C)n3c1)C2=O (centres unmarked) [Example 137] | 254 | >10000 | 101 | 213 | 90.2 | 124.5 | – | 84.5 | 89 |
| COc1ncccc1-c1nc2c(n1C(C)C)C(c1ccc(Cl)cc1)N(c1cc(C)c3nnn(C)c3n1)C2=O (centres unmarked) [Example 157, 6-(4-chlorophenyl)-5-(3,7-dimethyl-3H-[1,2,3]triazolo[4,5-b]pyridin-5-yl)-1-isopropyl-2-(2-methoxypyridin-3-yl)-5,6-dihydropyrrolo[3,4-d]imidazol-4(1H)-one] | 56.8 | >10000 | 8.82 | 24.75 | 10.6 | 15.15 | – | – | – |
| Cc1cc(N2C(=O)c3nc(C4CCOC4)n(C(C)C)c3C2c2ccc(Cl)cc2)nn2c(C)nnc12 (centres unmarked) [Example 170, 6-(4-chlorophenyl)-5-(3,8-dimethyl-[1,2,4]triazolo[4,3-b]pyridazin-6-yl)-1-isopropyl-2-(tetrahydrofuran-3-yl)-5,6-dihydropyrrolo[3,4-d]imidazol-4(1H)-one] | – | – | – | – | – | – | > 37000 | 31 | 43 |
| Cc1cc(N2C(=O)c3nc(C4CCOC4)n(C(C)C)c3[C@H]2c2ccc(Cl)cc2)nn2c(C)nnc12 (stereo partly drawn) [Example 171, (6R)-6-(4-chlorophenyl)-5-(3,8-dimethyl-[1,2,4]triazolo[4,3-b]pyridazin-6-yl)-1-isopropyl-2-(tetrahydrofuran-3-yl)-5,6-dihydropyrrolo[3,4-d]imidazol-4(1H)-one] | – | – | – | – | – | – | 17800 | 12 | < 11 |
